1 molecule from patent US20170022288A9, “PANCREATIC CANCER ASSOCIATED ANTIGEN, ANTIBODY THERETO, AND DIAGNOSTIC AND TREATMENT METHODS” (priority 2003, published 2017) can be followed below.

The subject of series [1] is BMRPA1 cells. Briefly: Anchorage independent colony formation on agar. In kind it is cell-based, rat. The note with it: NNK-treated BMRPA1 cells; days after seeding 9; 30 sequential 1 mm^2 fields, average of 5 TCFs ± SEM. As for the experimental part: Aliquots of 4 ml of 0.5% agar-medium mixture (agar was autoclaved in 64 mL H2O, cooled in a water bath to 50° C., and added to 15 mL 5× cRPMI, 19 mL FBS and 1 mL P/S) were poured into 25 cm^2 TCFs and allowed to harden overnight at 4° C. Prior to plating the cells, the flasks were placed in the COT-Air incubator for up to 5 h at 37° C. to facilitate equilibration of pH and temperature. Cells were collected by Trypsin-EDTA, 0.1 mL, of cell suspension (40000/mL cells in cRPMI) was dispersed carefully over the agar surface of each flask and the cultures were returned to the 37° C. incubator with […]-5% CO2. After 24 h, the agar-coated TCFs were inverted to allow drainage of excess medium. The cultures were examined microscopically after 9 d and 14 d for growth of colonies using a Zeiss inverted microscope.
The ability of the cloned BMRPA.1NNK and untreated BMRPA1 cells to grow on agar was examined by dispersing cells at low density onto soft agar (see Example 1).

Series [2] deals with BMRPA1 cells. Briefly: BrdU incorporation (FACS). The series is classed as cell-based, rat. The following applies: NNK-treated vs untransformed BMRPA1 cells. Here is the method:
Cells (5×10^4) were plated in 60 mm TCD, and allowed to grow in cRPMI-10% FBS. […] Briefly, 10^6 trypsin-EDTA released cells were washed twice in PBS-1% BSA, fixed in 70% ethanol for 30 min, and resuspended in RNAase A (0.1 mg/mL) for 30 min at 37° C. After washing the cells, their DNA was denatured with 2N HCl/Triton X-100 for 30 min, and neutralized with 0.1 M Na2B4O7.10H2O, pH 8.5. The cells were then washed in PBS-1% BSA with 0.5% Tween 20, and resuspended in 50 uL of 0.5% Tween in PBS-1% BSA solution with 20 uL of FITC-AntiBrdU antibody. After 45 min at 37° C., the cells were washed, resuspended in 1 mL of Na Citrate buffer containing Propidium Iodide (0.005 mg/mL) and RNAase A (0.1 mg/mL). Fluorescent activated cell sorting or flow cytometry (FACS) analysis to detect the incorporated BrdU and PI staining was performed by using a FACScan analyzer from Becton Dickinson Co. equipped with an Argon ion laser using excitation wavelength of 488 nm. Data analysis was performed using the LYSYS II program.
The measurement of BrdU incorporation in RNAase treated cells is routinely used to assess DNA synthesis during the S phase of proliferating cells (Alberts B., Johnson, A., Lewis, J., Raff, M., Roberts, K., Walter, P., 2002, Molecular Biology of the Cell. Garland Science, Taylor and Francis, 4th ed., NY). […]

The test system of series [3] is BMRPA1 cells. The series is described as follows: Cell growth at reduced serum (crystal violet assay). The note with it: NNK-transformed vs untreated BMRPA1 cells, 12 days. In kind it is cell-based, rat. As for the experimental part: To measure cell growth at 10% FBS, cells were seeded at 5×10^4 cell/60 mm TCD containing 4 ml of cRPMI-10% FBS. Every 3 d, triplicate TCDs were removed for each cell line under study, the cells were released with trypsin-EDTA, and counted in the presence of trypan blue. To assess the effect of cRPMI containing reduced FBS concentrations on cell growth, equal numbers (1.5×10^4 cell/ml/well) of NNK-treated and untreated BMRPA1 cells were seeded in triplicate wells of 24 well TCDs. The cells were allowed to adhere overnight in cRPMI 10% FBS, washed with PBS, and reincubated with cRPMI containing the indicated % FBS. Cell growth was evaluated by a modification of the crystal violet relative proliferation assay (Serrano, 1997). Briefly, the cells were washed with PBS, fixed in 10% buffered formalin followed by rinsing with distilled water. The cells were then stained with 0.1% Crystal Violet for 30 min at room temperature (RT), washed with dH2O, and dried. The cell-associated dye was extracted with 1 ml 10% acetic acid, aliquots were diluted 1:2 with dH2O, and transferred to 96-well microtiter plates for OD600nm measurements. The cell growth was calculated relative to the OD600nm values read at 24 h. […]

The subject of series [4] is BMRPA1 cells. The series is described as follows: NNK exposure: effects on BMRPA1 morphology. In kind it is cell-based, rat. The following applies: for cytotoxic changes: one 16 hour exposure. As for the experimental part: All preparations of the carcinogen-containing media were made in a separate laboratory within a NCI-designed and certified chemical hood using prescribed protective measures. 4-(N-nitrosmethylamino)-1-(3-pyridyl)-1-butanone (NNK, American Health Foundation, N.Y.) was prepared as a stock solution of 10 mg NNK in PBS and added to FBS-free cRPMI to make final concentrations of 100, 50, 10, 5, and 1 μg/mil. BMRPA1 cells at passage 36 (p36) were seeded at 10^5/60 mm TCDs and allowed to grow for 6 d. At this time the medium was removed, and the cells were washed 2× with prewarmed (37° C.), FBS-free cRPMI before they were treated with FBS-free cRPMI (4 ml/TCD) containing the different concentrations of NNK. A 6th set of TCDs containing BMRPA1 cells was incubated in FBS-free cRPMI without NNK and was used as controls. The eight TCDs used for each of the six sets of different culture conditions were returned to the 37° C. and 95% air-5% CO2 incubator. After 16 h, the NNK-containing medium was removed from all TCDs and the cells were washed 3× with PBS followed by addition of fresh cRPMI-10% FBS (4 ml/TCD), and the incubation continued. Control cultures without NNK were processed in parallel. The cells were fed every 2 d by replacing ½ of the spent medium with fresh cRPMI-10% FBS. At full confluency the cells were collected from all TCDs, the cells in each group were pooled, and passaged at 2×10^4 into fresh TCDs.
With the purpose of determining whether such changes are induced by a single exposure to NNK and at relatively small NNK concentrations, BMRPA1 cells were exposed for one 16 hour period to serum free medium containing 100, 50, 10, 5, and 1 μg NNK/mL. […] Furthermore, the gradual pace of these changes at 1 μg/mL allows a passage by passage study of both early and late events in the process of NNK-induced transformation. Thus, the results presented below were obtained with BMRPA1 cells exposed once for 16 h to 1 μg NNK/mL FBS-free medium.

The next series relates to Nu/Nu mice. The series is described as follows: Tumorigenicity in Nu/Nu mice. In kind it is in vivo, mouse. The note with it: 10^7 cloned BMRPA1.NNK cells injected s.c. Here is the method:
Nu/Nu mice (7 wks of age) were obtained from Harlan laboratories (Indianapolis, Ind.). The cells used for injection were released by Trypsin-EDTA, washed in cRPMI, and resuspended in PBS at 10^8 cells/mL. Each mouse tested was injected subcutaneously (s.c.) with 0.1 ml of this cell suspension. The animals were inspected for tumor development daily during the first 4 weeks, and thereafter at weekly intervals. Small pieces of the tumors (1-2 mm.) were cut from the core of the tumors and placed in 4% pafaformaldehyde overnight at 4 C. The tissue was then washed in PBS, and placed in 30% sucrose for another 24 h. Sections of tumor tissue frozen in Lipshaw embedding matrix (Pittsburgh, Pa.) were made with a Jung cryostat (Leica), placed on gelatin coated slides, and stored at −20 C. H&E staining was done according to standard procedures.
Cells growing on agar often have the ability to grow as tumors in Nu/Nu mice (Shin et al., 1975; Colburn et al., 1978). The ability of cells to grow in Nu/Nu mice as tumors is believed to be a strong indication of malignant transformation (Chung, 1986). Consequently, 10^7 cloned, live BMRPA1.NNK cells were injected subcutaneously (s.c.) in the posterior flank region of Nu/Nu mice. Another group of mice was injected s.c. under similar conditions with untransformed BMRPA1 cells. […]

`CN(CCCC(=O)c1cccnc1)N=O` [NNK, 4-(methyl-nitrosamino)-1-(3-pyridyl)-1-butanone]: in the series on BMRPA1 cells [1], the “# of colonies* formed <50 cells” value is reported as 14, the “# of colonies* formed >50 cells” value is listed as 15.8 ± 2.5 and the “# of colonies* formed Total” value turned out to be 17.3 ± 5.2. In addition, the “proliferative changes (BrdU incorporation)” value with BMRPA1 cells [2] is reported as “permanent hyperproliferative changes”. In the series with BMRPA1 cells [3], the “cell growth at 1%, 5%, and 10% FBS” value is given as “selective growth advantage”. For the same molecule, the “phenotypical changes (neoplastic transformation)” value in the series with BMRPA1 cells [4] (1 μg/ml, slower rate, over several weeks) was “phenotypical changes characteristic of neoplastic transformation”. In the series on BMRPA1 cells [4] (5, and 1 μg NNK/mL), the cytotoxic changes entry is “considerably less”. In the series on BMRPA1 cells [4] (100, 50, 10 μg NNK/ml, within a week), the “phenotypical changes (neoplastic transformation)” value was “phenotypical changes indicative of neoplastic transformation”. Moreover, the cytotoxic changes entry in the series on BMRPA1 cells [4] (larger concentrations (100, 50, 10 μg NNK/mL), serum free medium) is recorded as “cylotoxic changes”. In the series on Nu/Nu mice, the “# of mice with metastasis/# of mice tested” value is recorded as 1/6 and the “# of mice with tumor/# of mice tested” value is 3/6.
